Laboratory results reported in US9023789B2, “Amylin analogs and pharmaceutical compositions thereof” (Novo Nordisk A/S, priority 2012, dated 2015).
Numbered stars: 1 amine (or outer) side, 2 acyl side, 3 side chain; on linkers, the order of the positions; unused ones are H or OH. Bridge positions count the residues as written; N and C are the ends. Side chains are listed from the residue outwards. Peptide text beside a SMILES is read from it. * marks the point of attachment. C20 diacid = O=C(O)CCCCCCCCCCCCCCCCCCC(=O)*; γGlu = O=C(O)[C@H](CCC(=O)[*:2])N[*:1]; AEEA = NCCOCCOCC(=O)O

Tests used:
[1] = biological target: T1, human amylin receptor (membranes from Amylin 3(a)/CRE-luc cells) (Homo sapiens, UniProt O60896+P30988); experiment: ASSAY (V) binding to the human amylin receptor (SPA, 125I-rat amylin); details: for IC50: Table 4, read-out: hAmylin-R bind IC50;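 on all read-outs here: competition binding of cell membranes (35 ng/µL) mixed with SPA beads in 384-well plates at 40 µL total volume, read by scintillation counting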
T1 construct: expressed in transfected cells
T1 sequence (P30988 25-474): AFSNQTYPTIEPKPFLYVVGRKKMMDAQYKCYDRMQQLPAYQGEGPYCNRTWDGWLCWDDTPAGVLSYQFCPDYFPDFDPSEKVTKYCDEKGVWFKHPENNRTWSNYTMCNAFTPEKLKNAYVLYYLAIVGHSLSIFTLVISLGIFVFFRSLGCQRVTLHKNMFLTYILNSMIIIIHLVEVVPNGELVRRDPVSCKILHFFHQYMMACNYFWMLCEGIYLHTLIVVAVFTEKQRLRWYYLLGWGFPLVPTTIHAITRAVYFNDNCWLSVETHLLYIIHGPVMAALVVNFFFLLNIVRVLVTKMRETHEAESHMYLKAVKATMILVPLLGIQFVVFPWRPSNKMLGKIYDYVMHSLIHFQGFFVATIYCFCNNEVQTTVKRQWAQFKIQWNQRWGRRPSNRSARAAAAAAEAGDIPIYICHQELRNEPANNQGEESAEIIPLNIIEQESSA
T1 sequence (O60896 24-148 partner): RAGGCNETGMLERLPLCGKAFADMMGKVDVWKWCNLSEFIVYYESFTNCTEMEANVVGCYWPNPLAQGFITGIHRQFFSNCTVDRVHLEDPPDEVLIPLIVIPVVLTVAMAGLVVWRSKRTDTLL

[2] = biological target: T2, human amylin 3(a) receptor (human calcitonin receptor + RAMP-3) in BHK570 cells (Homo sapiens, UniProt O60896+P30988); experiment: ASSAY (II)a functional assay, human amylin receptor (CRE luciferase); type: cell-based; details: for EC50: human amylin receptor functional potency, assay (II), read-out: hAmylin-R funct. EC50
T2 construct: expressed in transfected cells
Outline: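 Read-out: CRE-driven luciferase luminescence, single photon counting, after 30 min at room temperature with LucLite. BHK cells expressed calcitonin receptor alone or with RAMP-3 (amylin 3(a)). Cells were stimulated 3 h at 37° C in DMEM, 10% FBS, 10 mM Hepes, pH 7.4.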

[3] = ASSAY (III) ThT fibrillation assay for physical stability; type: physicochemical
Outline: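 Physical stability scored by ThT fluorescence (444 nm excitation, 485 nm emission) tracked every 20 min during 37 °C incubation with 960 rpm shaking, ThT at 1 μM final. Values are replicate means with SD at chosen times; HPLC against pramlintide standard gives initial and post-assay soluble concentrations.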

[4] = Table 5, selectivity, hCTR bind IC50 / hAmylin-R bind IC50
[5] = Table 5a, selectivity, hCTR bind IC50 / hAmylin-R bind IC50
[6] = Table 5b, selectivity, hCTR bind IC50 / hAmylin-R bind IC50
[7] = Table 5c, selectivity, hCTR bind IC50 / hAmylin-R bind IC50
[8] = Table 7, human binding selectivity, included for comparison
[9] = Table 7a (preferred compounds), human binding selectivity, included for comparison
[10] = ratio of human calcitonin receptor binding IC50 to human amylin receptor binding IC50
[11] = hCTR funct. EC50 divided by hAmylin-R funct. EC50
[12] = hCTR funct. EC50 over hAmylin-R funct. EC50
[13] = human functional selectivity: hCTR funct. EC50 / hAmylin-R funct. EC50

## CC[C@H](C)[C@H](NC(=O)[C@H](C)NC(=O)CNC(=O)[C@H](Cc1ccccc1)NC(=O)[C@H](CC(N)=O)NC(=O)[C@@H]1CCCN1C(=O)[C@H](CO)NC(=O)[C@H](CO)NC(=O)[C@H](Cc1c[nH]cn1)NC(=O)[C@H](CCCNC(=N)N)NC(=O)[C@H](CC(C)C)NC(=O)[C@H](Cc1ccccc1)NC(=O)[C@@H](NC(=O)[C@H](C)NC(=O)[C@H](CC(C)C)NC(=O)[C@H](CCCNC(=N)N)NC(=O)[C@H](CCC(N)=O)NC(=O)[C@@H](NC(=O)[C@H](C)NC(=O)[C@@H]1CSSC[C@H](NC(=O)[C@@H](N)CCCCNC(=O)COCCOCCNC(=O)CC[C@H](NC(=O)CCCCCCCCCCCCCCCCCCC(=O)O)C(=O)O)C(=O)N[C@@H](CC(N)=O)C(=O)N[C@@H]([C@@H](C)O)C(=O)N[C@@H](C)C(=O)N[C@@H]([C@@H](C)O)C(=O)N1)[C@@H](C)O)[C@@H](C)O)C(=O)N1CCC[C@H]1C(=O)N[C@@H](CO)C(=O)N[C@@H](CO)C(=O)N[C@H](C(=O)N1CCC[C@H]1C(=O)N[C@H](C(=O)NCC(=O)N[C@@H](CO)C(=O)N[C@@H](CC(N)=O)C(=O)N[C@H](C(=O)N[C@@H](Cc1ccc(O)cc1)C(N)=O)[C@@H](C)O)C(C)C)[C@@H](C)O [Example 75] (H-K([AEEA-γGlu-C20 diacid])CNTATCATQRLATFLRHSSPNFGAIPSSTPVGSNTY-NH2; disulfide 2-7 (inferred); N-terminus assumed)
[1]
  IC50: 0.666 nM
[1]; [4]
  Ratio hCT/hAmylin binding: 91.4
[1]; [5]
  Ratio hCT/hAmylin binding: 91.4
[1]; [6]
  Ratio hCT/hAmylin binding: 91.4
[1]; [7]
  Ratio hCT/hAmylin binding: 91.4
[1]; [8]
  Ratio hCT/hAmylin binding: 91.4
[1]; [9]
  Ratio hCT/hAmylin binding: 91.4
[1]; [10]
  Ratio hCT/hAmylin binding: 91.4
[2]; [11]
  Ratio hCT/hAmylin funct.: 30.6
[2]; [12]
  Ratio hCT/hAmylin funct.: 30.6
[2]
  EC50: 0.296 nM
[2]; [13]
  Ratio hCT/hAmylin funct.: 30.6
[3]
  ThT pH 4.0 lag time (h): 25 h

## CC[C@H](C)[C@H](NC(=O)[C@H](C)NC(=O)CNC(=O)[C@H](Cc1ccccc1)NC(=O)[C@H](CC(N)=O)NC(=O)[C@@H]1CCCN1C(=O)[C@H](CO)NC(=O)[C@H](CO)NC(=O)[C@H](Cc1c[nH]cn1)NC(=O)[C@H](CCCNC(=N)N)NC(=O)[C@H](CC(C)C)NC(=O)[C@H](Cc1ccccc1)NC(=O)[C@H](CC(N)=O)NC(=O)[C@H](C)NC(=O)[C@H](CC(C)C)NC(=O)[C@H](CCCNC(=N)N)NC(=O)[C@H](CCC(N)=O)NC(=O)[C@@H](NC(=O)[C@H](C)NC(=O)[C@@H]1CSSC[C@H](NC(=O)[C@@H](N)CCCCNC(=O)COCCOCCNC(=O)CC[C@H](NC(=O)CCCCCCCCCCCCCCCCCCC(=O)O)C(=O)O)C(=O)N[C@@H](CC(N)=O)C(=O)N[C@@H]([C@@H](C)O)C(=O)N[C@@H](C)C(=O)N[C@@H]([C@@H](C)O)C(=O)N1)[C@@H](C)O)C(=O)N1CCC[C@H]1C(=O)N[C@@H](CO)C(=O)N[C@@H](CO)C(=O)N[C@H](C(=O)N[C@@H](CC(N)=O)C(=O)N[C@H](C(=O)NCC(=O)N[C@@H](CCCNC(=N)N)C(=O)N[C@@H](CC(N)=O)C(=O)N[C@H](C(=O)N[C@@H](Cc1ccc(O)cc1)C(N)=O)[C@@H](C)O)C(C)C)[C@@H](C)O [Example 78] (H-K([AEEA-γGlu-C20 diacid])CNTATCATQRLANFLRHSSPNFGAIPSSTNVGRNTY-NH2; disulfide 2-7 (inferred))
[1]
  IC50: 0.602 nM
[1]; [4]
  Ratio hCT/hAmylin binding: 60.7
[1]; [5]
  Ratio hCT/hAmylin binding: 60.7
[1]; [6]
  Ratio hCT/hAmylin binding: 60.7
[1]; [7]
  Ratio hCT/hAmylin binding: 60.7
[1]; [8]
  Ratio hCT/hAmylin binding: 60.7
[1]; [9]
  Ratio hCT/hAmylin binding: 60.7
[1]; [10]
  Ratio hCT/hAmylin binding: 60.7
[2]; [11]
  Ratio hCT/hAmylin funct.: 25.8
[2]; [12]
  Ratio hCT/hAmylin funct.: 25.8
[2]
  EC50: 0.316 nM
[2]; [13]
  Ratio hCT/hAmylin funct.: 25.8
[3]
  ThT pH 4.0 lag time (h): 13 h

## CC[C@H](C)[C@H](NC(=O)[C@H](C)NC(=O)CNC(=O)[C@H](Cc1ccccc1)NC(=O)[C@H](CC(N)=O)NC(=O)[C@@H]1CCCN1C(=O)[C@H](CO)NC(=O)[C@H](CO)NC(=O)[C@H](Cc1c[nH]cn1)NC(=O)[C@H](CCCNC(=N)N)NC(=O)[C@H](CC(C)C)NC(=O)[C@H](Cc1ccccc1)NC(=O)[C@H](CC(N)=O)NC(=O)[C@H](C)NC(=O)[C@H](CC(C)C)NC(=O)[C@H](CCCNC(=N)N)NC(=O)[C@H](CCC(N)=O)NC(=O)[C@@H](NC(=O)[C@H](C)NC(=O)[C@@H]1CSSC[C@H](NC(=O)[C@@H](N)CCCCNC(=O)CC[C@H](NC(=O)CCCCCCCCCCCCCCCCCCC(=O)O)C(=O)O)C(=O)N[C@@H](CC(N)=O)C(=O)N[C@@H]([C@@H](C)O)C(=O)N[C@@H](C)C(=O)N[C@@H]([C@@H](C)O)C(=O)N1)[C@@H](C)O)C(=O)N1CCC[C@H]1C(=O)N[C@@H](CO)C(=O)N[C@@H](CO)C(=O)N[C@H](C(=O)N[C@@H](CC(N)=O)C(=O)N[C@H](C(=O)NCC(=O)N[C@@H](CCCNC(=N)N)C(=O)N[C@@H](CC(N)=O)C(=O)N[C@H](C(=O)N[C@@H](Cc1ccc(O)cc1)C(N)=O)[C@@H](C)O)C(C)C)[C@@H](C)O [Example 79] (H-K([γGlu-C20 diacid])CNTATCATQRLANFLRHSSPNFGAIPSSTNVGRNTY-NH2; disulfide 2-7 (inferred); N-terminus assumed)
[1]
  IC50: 0.79 nM
[1]; [4]
  Ratio hCT/hAmylin binding: 46.1
[1]; [5]
  Ratio hCT/hAmylin binding: 46.1
[1]; [6]
  Ratio hCT/hAmylin binding: 46.1
[1]; [7]
  Ratio hCT/hAmylin binding: 46.1
[1]; [8]
  Ratio hCT/hAmylin binding: 46.1
[1]; [9]
  Ratio hCT/hAmylin binding: 46.1
[1]; [10]
  Ratio hCT/hAmylin binding: 46.1
[2]; [11]
  Ratio hCT/hAmylin funct.: 24.5
[2]; [12]
  Ratio hCT/hAmylin funct.: 24.5
[2]
  EC50: 0.161 nM
[2]; [13]
  Ratio hCT/hAmylin funct.: 24.5
[3]
  ThT pH 4.0 lag time (h): 21 h

## CC[C@H](C)[C@H](NC(=O)[C@H](C)NC(=O)CNC(=O)[C@H](Cc1ccccc1)NC(=O)[C@H](CC(N)=O)NC(=O)[C@@H]1CCCN1C(=O)[C@H](CO)NC(=O)[C@H](CO)NC(=O)[C@H](Cc1c[nH]cn1)NC(=O)[C@H](CCCNC(=N)N)NC(=O)[C@H](CC(C)C)NC(=O)[C@H](Cc1ccccc1)NC(=O)[C@H](CCCNC(=N)N)NC(=O)[C@H](C)NC(=O)[C@H](CC(C)C)NC(=O)[C@H](CCCNC(=N)N)NC(=O)[C@H](CCC(N)=O)NC(=O)[C@@H](NC(=O)[C@H](C)NC(=O)[C@@H]1CSSC[C@H](NC(=O)[C@@H](N)CCCCNC(=O)COCCOCCNC(=O)CC[C@H](NC(=O)CCCCCCCCCCCCCCCCCCC(=O)O)C(=O)O)C(=O)N[C@@H](CC(N)=O)C(=O)N[C@@H]([C@@H](C)O)C(=O)N[C@@H](C)C(=O)N[C@@H]([C@@H](C)O)C(=O)N1)[C@@H](C)O)C(=O)N1CCC[C@H]1C(=O)N[C@@H](CO)C(=O)N[C@@H](CO)C(=O)N[C@H](C(=O)N[C@@H](CC(N)=O)C(=O)N[C@H](C(=O)NCC(=O)N[C@@H](CO)C(=O)N[C@@H](CC(N)=O)C(=O)N[C@H](C(=O)N[C@@H](Cc1ccc(O)cc1)C(N)=O)[C@@H](C)O)C(C)C)[C@@H](C)O [Example 82] (H-K([AEEA-γGlu-C20 diacid])CNTATCATQRLARFLRHSSPNFGAIPSSTNVGSNTY-NH2; disulfide 2-7; N-terminus assumed)
[1]
  IC50: 0.636 nM
[1]; [4]
  Ratio hCT/hAmylin binding: 139.6
[1]; [5]
  Ratio hCT/hAmylin binding: 139.6
[1]; [6]
  Ratio hCT/hAmylin binding: 139.6
[1]; [7]
  Ratio hCT/hAmylin binding: 139.6
[1]; [8]
  Ratio hCT/hAmylin binding: 139.6
[1]; [9]
  Ratio hCT/hAmylin binding: 139.6
[1]; [10]
  Ratio hCT/hAmylin binding: 139.6
[2]; [11]
  Ratio hCT/hAmylin funct.: 59.2
[2]; [12]
  Ratio hCT/hAmylin funct.: 59.2
[2]
  EC50: 0.215 nM
[2]; [13]
  Ratio hCT/hAmylin funct.: 59.2
[3]
  ThT pH 4.0 lag time (h): 12 h
